# Measured values taken from US8022055B2, “Betulinic acid derivatives” (Dabur Pharma Limited, priority 2005, dated 2011).
# Tests used:
# SW620 = assay: three day MTT cytotoxicity assay, SW620; type: cell-based, human; conditions: SW620, 72 hours
# Description: Briefly, a three day MTT cytotoxicity assay was performed, which is based on the principle of uptake of MTT (3-(4,5-dimethylthiazol-2-yl)-2,5-diphenyl tetrazolium bromide), a tetrazolium salt, by the metabolically active cells where it is metabolized by active mitochondria into a blue colored formazan product that is read spectrophotometrically. MIT was dissolved in phosphate buffered saline with a pH of 7.4 to obtain an MIT concentration of 5 mg/ml; the resulting mixture was filtered through a 0.22-micron filter to sterilize and remove a small amount of insoluble residue. For each type of tumor cell, 10,000 to 15,000 cells were seeded in a 96-well culture plate and incubated with the individual betulinic acid derivatives in a CO2 incubator for a total of 72 hours. Control cells not treated with the betulinic acid derivatives were similarly incubated. The assay was terminated by adding 100 μg (20 μl) of MIT to each well then incubating for additional one hour, and finally adding 50 μl of 10% SDS-0.01N HCl to each well to lyse the cells and dissolve formazan. After incubating for one hour, the plate was read spectrophotometrically at 540 nm and the percentage of cytotoxicity calculated using the following formula: Cytotoxicity percentage=100×[1−(X/R1)], where X=(absorbance of treated sample at 540 nm)−(absorbance of blank at 540 nm) R1=absorbance of control sample at 540 nm. The IC50 Values of the cytotoxicity defined as the concentration at which 50% of the cells are killed in vitro was calculated for each cell line treated with each of the betulinic acid derivatives.
# DU145 = assay: three day MTT cytotoxicity assay, DU145; type: cell-based, human; conditions: DU145, 72 hours
# Description: (§1) A number of compounds listed in Table-3 were tested for cytotoxicity against prostate, lung, laryngeal, pancreas, breast, colon and ovarian cancer, leukemia and lymphoma, human tumor cell lines. Briefly, a three day MTT cytotoxicity assay was performed, which is based on the principle of uptake of MTT (3-(4,5-dimethylthiazol-2-yl)-2,5-diphenyl tetrazolium bromide), a tetrazolium salt, by the metabolically active cells where it is metabolized by active mitochondria into a blue colored formazan product that is read spectrophotometrically. MIT was dissolved in phosphate buffered saline with a pH of 7.4 to obtain an MIT concentration of 5 mg/ml; the resulting mixture was filtered through a 0.22-micron filter to sterilize and remove a small amount of insoluble residue. For each type of tumor cell, 10,000 to 15,000 cells were seeded in a 96-well culture plate and incubated with the individual betulinic acid derivatives in a CO2 incubator for a total of 72 hours. Control cells not treated with the betulinic acid derivatives were similarly incubated. The assay was terminated by adding 100 μg (20 μl) of MIT to each well then incubating for additional one hour, and finally adding 50 μl of 10% SDS-0.01N HCl to each well to lyse the cells and dissolve formazan. After incubating for one hour, the plate was read spectrophotometrically at 540 nm and the percentage of cytotoxicity calculated using the following formula: Cytotoxicity percentage=100×[1−(X/R1)], where X=(absorbance of treated sample at 540 nm)−(absorbance of blank at 540 nm) R1=absorbance of control sample at 540 nm. The IC50 Values of the cytotoxicity defined as the concentration at which 50% of the cells are killed in vitro was calculated for each cell line treated with each of the betulinic acid derivatives.
# NIH 3T3 cells = assay: NIH3T3 cytotoxicity test (72 h MTT assay); type: cell-based; conditions: NIH3T3, 72 hours
# Description: The cytotoxic effect of chemicals upon NIH 3T3 cells in culture is measured by cell metabolism determination using the previously described MIT assay. Healthy NIH 3T3 cells (an established cell-line), when maintained in culture continuously divide and multiply over time. The basis of this test is that a cytotoxic chemical (regardless of site or mechanism of action) will interfere with this process and, thus, result in a reduction of the growth rate as reflected by cell number. The degree of inhibition of growth, related to the concentration of the test compound, provides an indication of toxicity.
# The NIH 3T3 cells are maintained in culture and exposed to test compounds over a range of concentrations and the number of viable cells determined after 72 hours exposure by MIT assay. The number of cells in the presence of test chemicals are compared to that observed in control cultures and the percent inhibition of growth calculated. The IC50 concentration (i.e. the concentration producing 50% inhibition of growth) is determined and expressed as μg/ml. A ratio of IC50 of NIH 3T3 cells to tumor cells is an indicator of predicted toxicity of the molecule and is represented as “Safety Index”. The higher the value, the better is the predicted safety of the molecule.
# Miapaca = assay: three day MTT cytotoxicity assay, Miapaca; type: cell-based, human; conditions: for IC50 for cell lines Miapaca: 72 hours, MTT; for Specific Index (SI) for cell lines Miapaca: ratio of IC50 of NIH 3T3 cells to Miapaca
# Description: as §1
# HBL100 = assay: three day MTT cytotoxicity assay, HBL100; type: cell-based, human; conditions: for IC50 for cell lines HBL100: HBL100, 72 hours, MTT; for Specific Index (SI) for cell lines HBL100: ratio of IC50 of NIH 3T3 cells to HBL100
# PA1 = assay: three day MTT cytotoxicity assay, PA1; type: cell-based, human; conditions: PA1, 72 hours
# K562 = assay: three day MTT cytotoxicity assay, K562; type: cell-based, human; conditions: for IC50 for cell lines K562: K562, 72 hours, MTT; for Specific Index (SI) for cell lines K562: ratio of IC50 of NIH 3T3 cells to K562
# A549 = assay: three day MTT cytotoxicity assay, A549; type: cell-based, human; conditions: for IC50 for cell lines A549: A549, 72 hours, MTT; for Specific Index (SI) for cell lines A549: ratio of IC50 of NIH 3T3 cells to A549
# Description: as §1
Molecule,IC50 for cell lines SW620 (SW620),IC50 for cell lines DU145 (DU145),IC50 for cell lines NIH3T3 (NIH 3T3 cells),IC50 for cell lines Miapaca (Miapaca),IC50 for cell lines HBL100 (HBL100),IC50 for cell lines PA1 (PA1),IC50 for cell lines K562 (K562),IC50 for cell lines A549 (A549),Specific Index (SI) for cell lines K562 (K562),Specific Index (SI) for cell lines Miapaca (Miapaca),Specific Index (SI) for cell lines HBL100 (HBL100),Specific Index (SI) for cell lines A549 (A549)
"1′-Benzyl-2,3-didehydro-20,29-dihydro-4′-phenylpyrrolo[2′,′:2,3]betulinic acid [Compound 13]",>20 µg/mL,>20 µg/mL,>20 µg/mL,>20 µg/mL,>20 µg/mL,>20 µg/mL,,,,,,
"28-O-Pivaloyoxymethyl-2,3-didehydroindolo[2′,3′:2,3]betulinate [Compound 17]",>20 µg/mL,>20 µg/mL,>20 µg/mL,>20 µg/mL,>20 µg/mL,>20 µg/mL,>20 µg/mL,>20 µg/mL,,,,
"C=C(C)[C@@H]1CC[C@]2(C(=O)O)CC[C@]3(C)[C@H](CC[C@@H]4[C@@]5(C)Cc6c([nH]c7ccccc67)C(C)(C)[C@@H]5CC[C@]43C)[C@@H]12 [Compound 1, 2,3-Didehydroindolo[2′,′:2,3]betulinic acid]",5.151 µg/mL,8.86 µg/mL,6.9 ± 0.76 µg/mL,6.7 ± 0.59 µg/mL,10.3 ± 0.9 µg/mL,6.01 µg/mL,10.05 ± 0.61 µg/mL,7.6 ± 0.57 µg/mL,0.68,1.029,0.669,0.907
"CC(C)[C@@H]1CC[C@]2(C(=O)O)CC[C@]3(C)C(CCC4[C@@]5(C)Cc6c([nH]c7ccccc67)C(C)(C)C5CC[C@]43C)C12 (stereo partly shown) [Compound 2, 2,3-Didehydro-20,29-dihydroindolo[2′,3′:2,3]betulinic acid]",>20 µg/mL,>20 µg/mL,>20 µg/mL,>20 µg/mL,>20 µg/mL,>20 µg/mL,15.07 ± 2.15 µg/mL,>20 µg/mL,,,,
"C=C(C)[C@@H]1CC[C@]2(C(=O)O)CC[C@]3(C)C(CCC4[C@@]5(C)Cc6c(n(C)c7ccccc67)C(C)(C)C5CC[C@]43C)C12 (stereo partly shown) [Compound 3, 2,3-Didehydro-1′-methylindolo[2′,′:2,3]betulinic acid]",,≥ 20 µg/mL,15.12 ± 3.04 µg/mL,5.34 ± 0.96 µg/mL,19.5 ± 2.1 µg/mL,,7.73 ± 0.17 µg/mL,6.9 ± 0.21 µg/mL,1.956,2.831,0.775,2.191
"CC(C)[C@@H]1CC[C@]2(C(=O)O)CC[C@]3(C)C(CCC4[C@@]5(C)Cc6c(n(C)c7ccccc67)C(C)(C)C5CC[C@]43C)C12 (stereo partly shown) [Compound 4, 2,3-Didehydro-20,29-dihydro-1′-methylindolo[2′,3′,2,3]betulinic acid]",,>20 µg/mL,>20 µg/mL,5.4 ± 0.43 µg/mL,14.14 ± 0.8 µg/mL,>20 µg/mL,10.85 ± 1.5 µg/mL,6.5 ± 3.4 µg/mL,>1.843,>3.703,>1.414,>3.076
"CC(C)[C@@H]1CC[C@]2(C(=O)O)CC[C@]3(C)[C@H](CC[C@@H]4[C@@]5(C)Cc6c([nH]c7ccc(Cl)cc67)C(C)(C)[C@@H]5CC[C@]43C)[C@@H]12 [Compound 6, 5′-Chloro-2,3-didehydro-20,29-dihydroindolo[2′,′:2,3]betulinic acid]",5.9 µg/mL,6.5 µg/mL,19.03 ± 0.21 µg/mL,15.19 ± 1.06 µg/mL,>20 µg/mL,6.6 µg/mL,>20 µg/mL,8.8 ± 0.74 µg/mL,<0.952,1.252,<0.951,2.163
"C=C(C)[C@@H]1CC[C@]2(C(=O)O)CC[C@]3(C)[C@H](CC[C@@H]4[C@@]5(C)Cc6c([nH]c7ccc(F)cc67)C(C)(C)[C@@H]5CC[C@]43C)[C@@H]12 [Compound 7, 2,3-Didehydro-5′-fluoroindolo[2′,′:2,3]betulinic acid]",9.16 µg/mL,,>20 µg/mL,17.4 ± 2.6 µg/mL,>20 µg/mL,,10.95 ± 0.93 µg/mL,17.8 ± 1.79 µg/mL,>1.826,>1.149,,>1.123
"CC(C)[C@@H]1CC[C@]2(C(=O)O)CC[C@]3(C)[C@H](CC[C@@H]4[C@@]5(C)Cc6c([nH]c7ccc(F)cc67)C(C)(C)[C@@H]5CC[C@]43C)[C@@H]12 [Compound 8, 2,3-Didehydro-5′-fluoro-20,29-dihydroindolo[2′,′:2,3]betulinic acid]",7.28 µg/mL,,14.59 ± 0.33 µg/mL,8.4 ± 0.76 µg/mL,>20 µg/mL,,14.01 ± 0.75 µg/mL,8.89 ± 0.84 µg/mL,1.041,1.737,<0.730,1.641
"CC(C)[C@@H]1CC[C@]2(C(=O)O)CC[C@]3(C)[C@H](CC[C@@H]4[C@@]5(C)Cc6c(oc7ccccc67)C(C)(C)[C@@H]5CC[C@]43C)[C@@H]12 [Compound 12, 2,3-Didehydro-20,29-dihydrobenzfurano[2′,3′:2,3]betulinic acid]",,>20 µg/mL,20 ± 5.6 µg/mL,8.8 ± 0.36 µg/mL,>20 µg/mL,>20 µg/mL,15.28 ± 0.18 µg/mL,7.1 ± 1.6 µg/mL,1.309,2.273,<1,2.817
